Several values for one entry are separate records, joined by “and”; a condition that tells them apart may be missing. Equal values may be shown once.
System: N. gonorrhoeae
Assay: N. gonorrhoeae murine vaginal infection model, efficacy
Assay type: in vivo, mouse
Settings: BID
Experimental: The N. gonorrhoeae female mouse vaginal model[45] was performed in accordance with the Guide for Care and Use of Laboratory Animals[75]. Animal rooms were maintained at a temperature range of 20–24 °C and humidity between 30% and 70%, with 12 h light/dark cycles. Ovariectomized BALB/c female mice (5–6 weeks, BioLASCO Taiwan Co., Ltd.) were treated with estradiol (0.23 mg/mouse) two days before infection and on the day of infection. Ovariectomized mice were used to avoid staging mice before treating them with estradiol. Beginning two days prior to infection and maintained until the end of the study, animals were treated twice daily with streptomycin (1.2 mg/mouse) and vancomycin (0.6 mg/mouse) each via intraperitoneal (IP) injection and received trimethoprim sulfate in the drinking water (0.4 mg/mL) to control vaginal microflora. Animals were anesthetised with pentobarbital (80 mg/kg), the vagina was rinsed with 50 mM HEPES (pH 7.4), and then inoculated with N. gonorrhoeae in pre-warmed PBS (0.02 mL/mouse containing ~1 × 10^5 CFU).
Control groups received either a single IP injection of ceftriaxone or 5% dextrose (vehicle) twice daily. Animals were sacrificed via CO2 asphyxiation at either 2 h (baseline), 26 and/or 50 h post-infection. Vaginal lavage was performed twice with 200 µL GC broth containing 0.05% saponin to recover bacteria. Bacterial burden in the lavage fluids was determined by performing 10-fold serial dilutions and plating on chocolate agar plates. Four strains were assessed using the model; ATCC 700825 is naturally streptomycin-resistant, whereas AR Bank0179-15, AR Bank0181-17 and WHO X-07 are derivatives of AR Bank0179, AR Bank0181 and WHO X, respectively, that were engineered for streptomycin resistance for use in the model.

[1] = Data 4, N. gonorrhoeae WHO X-07, ovariectomized BALB/c, 20 mg/kg PO, 24h, individual animals, 20 mg/kg
[2] = Data 4, N. gonorrhoeae WHO X-07, ovariectomized BALB/c, 20 mg/kg PO, 48h, individual animals, 20 mg/kg
[3] = Data 4, N. gonorrhoeae WHO X-07, ovariectomized BALB/c, 30 mg/kg PO, 24h, individual animals, 30 mg/kg
[4] = Data 4, N. gonorrhoeae WHO X-07, ovariectomized BALB/c, 30 mg/kg PO, 48h, individual animals, 30 mg/kg
[5] = Data 4, N. gonorrhoeae WHO X-07, ovariectomized BALB/c, 40 mg/kg PO, 24h, individual animals, 40 mg/kg
[6] = Data 4, N. gonorrhoeae WHO X-07, ovariectomized BALB/c, 40 mg/kg PO, 48h, individual animals, 40 mg/kg
[7] = Data 4, N. gonorrhoeae WHO X-07, ovariectomized BALB/c, 80 mg/kg PO, 24h, individual animals, 80 mg/kg
[8] = Data 4, N. gonorrhoeae WHO X-07, ovariectomized BALB/c, 80 mg/kg PO, 48h, individual animals, 80 mg/kg
[9] = Data 4, N. gonorrhoeae WHO X-07, ovariectomized BALB/c, 160 mg/kg PO, 24h, individual animals, 160 mg/kg
[10] = Data 4, N. gonorrhoeae WHO X-07, ovariectomized BALB/c, 160 mg/kg PO, 48h, individual animals
[11] = N. gonorrhoeae AR Bank0179-15, vaginal lavage, individual mice, Debio 1453P 10 mg/kg PO, 24h
[12] = N. gonorrhoeae AR Bank0179-15, vaginal lavage, individual mice, Debio 1453P 10 mg/kg PO, 48h
[13] = N. gonorrhoeae AR Bank0179-15, vaginal lavage, individual mice, Debio 1453P 20 mg/kg PO, 24h

For `Cc1c(CN(C)C(=O)/C=C/c2cnc3c(c2)N[C@H](C)[C@H](OP(=O)([O-])[O-])C(=O)N3)oc2ccccc12.[Na+].[Na+]` [Debio 1453 P], the CFU/mL lavage fluid [1] was 780000 CFU/mL lavage fluid and 510000 CFU/mL lavage fluid and 2110000 CFU/mL lavage fluid and 820000 CFU/mL lavage fluid and 1010000 CFU/mL lavage fluid, the “Log10(CFU/mL lavage fluid)” value [1] was 5.89 Log10(CFU/mL lavage fluid) and 5.71 Log10(CFU/mL lavage fluid) and 6.32 Log10(CFU/mL lavage fluid) and 5.91 Log10(CFU/mL lavage fluid) and 6.00 Log10(CFU/mL lavage fluid) and the CFU/mL lavage fluid [2] was 2660000 CFU/mL lavage fluid and 620000 CFU/mL lavage fluid and 3200000 CFU/mL lavage fluid and 920000 CFU/mL lavage fluid and 870000 CFU/mL lavage fluid. For the same compound, the “Log10(CFU/mL lavage fluid)” value [2] was 6.42 Log10(CFU/mL lavage fluid) and 5.79 Log10(CFU/mL lavage fluid) and 6.51 Log10(CFU/mL lavage fluid) and 5.96 Log10(CFU/mL lavage fluid) and 5.94 Log10(CFU/mL lavage fluid), the CFU/mL lavage fluid [3] was 740000 CFU/mL lavage fluid and 760000 CFU/mL lavage fluid and 840000 CFU/mL lavage fluid and 440000 CFU/mL lavage fluid and 700000 CFU/mL lavage fluid and the “Log10(CFU/mL lavage fluid)” value [3] was 5.87 Log10(CFU/mL lavage fluid) and 5.88 Log10(CFU/mL lavage fluid) and 5.92 Log10(CFU/mL lavage fluid) and 5.64 Log10(CFU/mL lavage fluid) and 5.85 Log10(CFU/mL lavage fluid). The CFU/mL lavage fluid [4] was 790000 CFU/mL lavage fluid and 1090000 CFU/mL lavage fluid and 46000 CFU/mL lavage fluid and 550000 CFU/mL lavage fluid and 1250000 CFU/mL lavage fluid, the “Log10(CFU/mL lavage fluid)” value [4] was 5.90 Log10(CFU/mL lavage fluid) and 6.04 Log10(CFU/mL lavage fluid) and 4.66 Log10(CFU/mL lavage fluid) and 5.74 Log10(CFU/mL lavage fluid) and 6.10 Log10(CFU/mL lavage fluid) and the CFU/mL lavage fluid [5] was 2240000 CFU/mL lavage fluid and 380000 CFU/mL lavage fluid and 92000 CFU/mL lavage fluid and 77000 CFU/mL lavage fluid and 610000 CFU/mL lavage fluid. For the same compound, the “Log10(CFU/mL lavage fluid)” value [5] was 6.35 Log10(CFU/mL lavage fluid) and 5.58 Log10(CFU/mL lavage fluid) and 4.96 Log10(CFU/mL lavage fluid) and 4.89 Log10(CFU/mL lavage fluid) and 5.79 Log10(CFU/mL lavage fluid), the CFU/mL lavage fluid [6] was 123000 CFU/mL lavage fluid and 55000 CFU/mL lavage fluid and 380000 CFU/mL lavage fluid and 85000 CFU/mL lavage fluid and 1000000 CFU/mL lavage fluid and the “Log10(CFU/mL lavage fluid)” value [6] was 5.09 Log10(CFU/mL lavage fluid) and 4.74 Log10(CFU/mL lavage fluid) and 5.58 Log10(CFU/mL lavage fluid) and 4.93 Log10(CFU/mL lavage fluid) and 6.00 Log10(CFU/mL lavage fluid). For the same compound, the CFU/mL lavage fluid [7] was 5 CFU/mL lavage fluid and 295 CFU/mL lavage fluid and 380 CFU/mL lavage fluid and 10 CFU/mL lavage fluid, the “Log10(CFU/mL lavage fluid)” value [7] was 0.70 Log10(CFU/mL lavage fluid) and 2.47 Log10(CFU/mL lavage fluid) and 2.58 Log10(CFU/mL lavage fluid) and 1.00 Log10(CFU/mL lavage fluid) and the CFU/mL lavage fluid [8] was 55 CFU/mL lavage fluid and <5 CFU/mL lavage fluid and 5 CFU/mL lavage fluid. For the same compound, the “Log10(CFU/mL lavage fluid)” value [8] was 1.74 Log10(CFU/mL lavage fluid) and <0.70 Log10(CFU/mL lavage fluid) and 0.70 Log10(CFU/mL lavage fluid), the CFU/mL lavage fluid [9] was <5 CFU/mL lavage fluid and 30 CFU/mL lavage fluid and 5 CFU/mL lavage fluid and the “Log10(CFU/mL lavage fluid)” value [9] was <0.70 Log10(CFU/mL lavage fluid) and 1.48 Log10(CFU/mL lavage fluid) and 0.70 Log10(CFU/mL lavage fluid). The CFU/mL lavage fluid [10] was <5 CFU/mL lavage fluid, the “Log10(CFU/mL lavage fluid)” value [10] was <0.70 Log10(CFU/mL lavage fluid) and the CFU/mL lavage fluid [11] was 390000 CFU/mL and 85000 CFU/mL and 46000 CFU/mL and 59000 CFU/mL and 77000 CFU/mL. The “Log10(CFU/mL lavage fluid)” value [11] was 5.59 Log10(CFU/mL lavage fluid) and 4.93 Log10(CFU/mL lavage fluid) and 4.66 Log10(CFU/mL lavage fluid) and 4.77 Log10(CFU/mL lavage fluid) and 4.89 Log10(CFU/mL lavage fluid), the CFU/mL lavage fluid [12] was 64000 CFU/mL and 520000 CFU/mL and 61000 CFU/mL and 80000 CFU/mL and 103000 CFU/mL and the “Log10(CFU/mL lavage fluid)” value [12] was 4.81 Log10(CFU/mL lavage fluid) and 5.72 Log10(CFU/mL lavage fluid) and 4.79 Log10(CFU/mL lavage fluid) and 4.9 Log10(CFU/mL lavage fluid) and 5.01 Log10(CFU/mL lavage fluid). For the same compound, the CFU/mL lavage fluid [13] was 47000 CFU/mL and 64000 CFU/mL and 4900 CFU/mL and 1450 CFU/mL and 20400 CFU/mL and the “Log10(CFU/mL lavage fluid)” value [13] was 4.67 Log10(CFU/mL lavage fluid) and 4.81 Log10(CFU/mL lavage fluid) and 3.69 Log10(CFU/mL lavage fluid) and 3.16 Log10(CFU/mL lavage fluid) and 4.31 Log10(CFU/mL lavage fluid).
